# According to patent publication US8318186B2, “Use of at least a fatty ester for preparing a composition designed to inhibit 5-α-reductase activity, in pharmacology, in particular dermatology, in cosmetics and as food additive” (Laboratoires Expanscience, priority 2000, dated 2012):
# Target: T1, 5α-reductase (Homo sapiens, UniProt P18405)
# T1 construct: endogenous in cells; host or cells: DU145 prostate carcinoma cells (ATCC HTB 81)
# T1 sequence (P18405 1-259): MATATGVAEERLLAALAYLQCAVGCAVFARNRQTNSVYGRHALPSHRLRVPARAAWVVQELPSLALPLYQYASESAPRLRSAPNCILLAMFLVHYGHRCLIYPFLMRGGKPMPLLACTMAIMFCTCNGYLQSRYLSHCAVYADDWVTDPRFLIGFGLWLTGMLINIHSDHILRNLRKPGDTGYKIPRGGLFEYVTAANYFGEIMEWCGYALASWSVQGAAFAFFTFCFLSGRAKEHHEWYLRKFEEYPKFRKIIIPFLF
# Assay: Inhibition of the 5α-reductase of DU145 cells: quantity of 5-dihydrotestosterone formed from testosterone (RIA)
# Assay type: cell-based
# Procedure: The prostatic cells DU145 are derived from a tumor line obtained from a prostate carcinoma (ATCC No. HTB 81). The MEM medium (ref. 0410265), the glutamine and the gentamycin are from Gibco. The fetal calf serum (FCS) is from DAP and is used decomplementized ([…] at 56° C.). The plastics serving for the culture (dishes and plates) are from Costar. The testosterone is from Sigma.
# A stock solution in ethanol at 10 mg/ml is prepared from each of the products tested.
# The concentration range used for the experiments is the following: 0, 5, 10, 50, 100 and 500 micrograms/ml. (Dilution performed in the culture medium).
# The volume of extract added per well being 20 microliters/well, the solutions to be prepared are concentrated 50×.
# A stock solution of testosterone at 10 mM is prepared in ethanol. At the time of its use, this solution is diluted 1:1 000 in the culture medium and 10 microliters are added per well.
# The prostatic cells DU145 are cultured at 37° C., 5% Co2 in an MEM medium containing glutamine (2 mM), gentamycin (50 micrograms/ml) and 10% FCS. Their subculture rate is 1:10.
# Before starting the experiment, the cells are placed in culture in 6-well plates at the rate of 2×10^5 DU145 cells per well/1 ml of medium containing only 1% FCS. The cells are maintained for 3 days at 37° C., 5% CO2. […]
smiles,measurement,setting,value
"CCCCCCCC/C=C\CCCCCCCC(=O)OC [Methyl oleate, methyl oleate]","5α-reductase inhibitory activity, in words",conclusions of Example 2,markedly less active than the methyl esters of avocado
same,IC50,"testosterone 0.1 micromolar, 3 hours, read-out: IC 50, conversion of testosterone to 5-dihydrotestosterone by the DU 145 cells (converted)",1300 µM
